Source: US9624170B2, “4-(piperrazin-1-yl)-pyrrolidin-2-one compounds as monoacylglycerol lipase (MAGL) inhibitors” (TAKEDA PHARMACEUTICAL COMPANY LIMITED, priority 2013, dated 2017)

Biological target: T1, human MAGL (His-hMAGL) (Homo sapiens, UniProt Q99685)
T1 construct: made in house; host or cells: Escherichia coli BL21(DE3)
T1 sequence (Q99685 1-303): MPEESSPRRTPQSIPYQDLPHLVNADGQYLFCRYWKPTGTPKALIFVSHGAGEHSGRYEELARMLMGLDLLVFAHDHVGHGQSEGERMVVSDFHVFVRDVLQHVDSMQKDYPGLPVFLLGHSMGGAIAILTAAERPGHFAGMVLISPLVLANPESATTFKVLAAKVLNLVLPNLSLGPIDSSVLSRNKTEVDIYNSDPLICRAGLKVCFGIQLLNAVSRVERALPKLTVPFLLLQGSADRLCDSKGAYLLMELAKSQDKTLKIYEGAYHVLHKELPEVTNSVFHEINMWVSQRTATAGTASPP
Assay: Measurement of MAGL inhibitory activity by mass spectrometry
Assay type: biochemical
Conditions: MAGL inhibitory rate, test compound 10 μM, His-hMAGL, substrate 2-arachidonylglycerol, RapidFire-mass spectrometry
Procedure, shortened: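 His-tagged human MAGL was reacted with 150 μM 2-arachidonylglycerol substrate (stock, added by 5 μL) for 10 min at room temperature, then stopped with formic acid. Arachidonic acid product was quantified by RapidFire–triple-quadrupole MS in negative SRM mode, corrected by arachidonic acid-d8, and converted to percent inhibition.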

COc1ccccc1-c1cc(N2CC(N3CCN(C(=O)c4nccs4)CC3)CC2=O)cc2cn[nH]c12 (stereo not drawn) [Example 355, 1-(7-(2-methoxyphenyl)-1H-indazol-5-yl)-4-(4-(1,3-thiazol-2-ylcarbonyl)piperazin-1-yl)pyrrolidin-2-one]
inhibition at 10 µM: 98%

Cc1cc(Cl)ccc1-c1cccc(N2CC(N3CCN(C(=O)c4nccs4)CC3)CC2=O)c1 (stereo not drawn) [Example 356, 1-(4′-chloro-2′-methylbiphenyl-3-yl)-4-(4-(1,3-thiazol-2-ylcarbonyl)piperazin-1-yl)pyrrolidin-2-one]
inhibition at 10 µM: 98%

Cc1cc(Cl)ccc1-c1cc(F)cc(N2CC(N3CCN(C(=O)c4nccs4)CC3)CC2=O)c1 (stereo not drawn) [Example 357, 1-(4′-chloro-5-fluoro-2′-methylbiphenyl-3-yl)-4-(4-(1,3-thiazol-2-ylcarbonyl)piperazin-1-yl)pyrrolidin-2-one]
inhibition at 10 µM: 101%

Cc1cnc(-n2ccc3cc(N4CC(N5CCN(C(=O)c6nccs6)CC5)CC4=O)ccc32)nc1 (stereo not drawn) [Example 358, 1-(1-(5-methylpyrimidin-2-yl)-1H-indol-5-yl)-4-(4-(1,3-thiazol-2-ylcarbonyl)piperazin-1-yl)pyrrolidin-2-one]
inhibition at 10 µM: 102%

C[C@@H]1CN(C(=O)c2nccs2)CCN1C1CC(=O)N(c2ccc3c(ccn3-c3ccc(F)cc3)c2)C1 (stereo partly drawn) [Example 359, 1-(1-(4-fluorophenyl)-1H-indol-5-yl)-4-((2R)-2-methyl-4-(1,3-thiazol-2-ylcarbonyl)piperazin-1-yl)pyrrolidin-2-one]
inhibition at 10 µM: 96%

O=C1CC(N2CCN(c3ncccn3)CC2)CN1c1ccc2c(ccn2-c2ccnc(C(F)(F)F)c2)c1 (stereo not drawn) [Example 361, 4-(4-(pyrimidin-2-yl)piperazin-1-yl)-1-(1-(2-(trifluoromethyl)pyridin-4-yl)-1H-indol-5-yl)pyrrolidin-2-one]
inhibition at 10 µM: 92%

Cc1nccnc1-c1cccc(N2CC(N3CCN(C(=O)c4nccs4)CC3)CC2=O)c1 (stereo not drawn) [Example 362, 1-(3-(3-methylpyrazin-2-yl)phenyl)-4-(4-(1,3-thiazol-2-ylcarbonyl)piperazin-1-yl)pyrrolidin-2-one]
inhibition at 10 µM: 92%

C[C@H]1CN(C2CC(=O)N(c3ccc4c(ccn4-c4ccc(F)cc4)c3)C2)CCN1C(=O)c1nccs1 (stereo partly drawn) [Example 363, 1-(1-(4-fluorophenyl)-1H-indol-5-yl)-4-((3S)-3-methyl-4-(1,3-thiazol-2-ylcarbonyl)piperazin-1-yl)pyrrolidin-2-one]
inhibition at 10 µM: 96%

O=C(c1nccs1)N1CCN(C2CC(=O)N(c3ccc4c(c3)CCN4c3ccnc(C(F)(F)F)c3)C2)CC1 (stereo not drawn) [Example 365, 4-(4-(1,3-thiazol-2-ylcarbonyl)piperazin-1-yl)-1-(1-(2-(trifluoromethyl)pyridin-4-yl)-2,3-dihydro-1H-indol-5-yl)pyrrolidin-2-one]
inhibition at 10 µM: 98%

O=C(c1nccs1)N1CCN(C2CC(=O)N(c3sc4cc(F)ccc4c3Cl)C2)CC1 (stereo not drawn) [Example 366, 1-(3-Chloro-6-fluoro-1-benzothiophen-2-yl)-4-(4-(1,3-thiazol-2-ylcarbonyl)piperazin-1-yl)pyrrolidin-2-one]
inhibition at 10 µM: 100%

Cc1ccc(-c2cccc(N3CC(N4CCN(C(=O)c5nccs5)CC4)CC3=O)c2)c(C)n1 (stereo not drawn) [Example 368, 1-(3-(2,6-dimethylpyridin-3-yl)phenyl)-4-(4-(1,3-thiazol-2-ylcarbonyl)piperazin-1-yl)pyrrolidin-2-one]
inhibition at 10 µM: 97%

O=C(c1nccs1)N1CCN(C2CC(=O)N(c3cccc(-c4cnccc4Cl)c3)C2)CC1 (stereo not drawn) [Example 370, 1-(3-(4-chloropyridin-3-yl)phenyl)-4-(4-(1,3-thiazol-2-ylcarbonyl)piperazin-1-yl)pyrrolidin-2-one]
inhibition at 10 µM: 101%

O=C(c1nccs1)N1CCN(C2CC(=O)N(c3cccc(-c4cnccc4C(F)(F)F)c3)C2)CC1 (stereo not drawn) [Example 371, 4-(4-(1,3-thiazol-2-ylcarbonyl)piperazin-1-yl)-1-(3-(4-(trifluoromethyl)pyridin-3-yl)phenyl)pyrrolidin-2-one]
inhibition at 10 µM: 104%

CC(C)(C)OC(=O)N1CCc2cc(N3CC(N4CCN(C(=O)c5nccs5)CC4)CC3=O)ccc21 (stereo not drawn) [Example 372, tert-Butyl 5-(2-oxo-4-(4-(1,3-thiazol-2-ylcarbonyl)piperazin-1-yl)pyrrolidin-1-yl)indoline-1-carboxylate]
inhibition at 10 µM: 101%

O=C(c1nccs1)N1CCN(C2CC(=O)N(c3ccc4c(c3)CCN4C(=O)C(F)(F)F)C2)CC1 (stereo not drawn) [Example 373, 4-(4-(1,3-Thiazol-2-ylcarbonyl)piperazin-1-yl)-1-(1-(trifluoroacetyl)-2,3-dihydro-1H-indol-5-yl)pyrrolidin-2-one]
inhibition at 10 µM: 96%

O=C(c1nccs1)N1CCN(C2CC(=O)N(c3ccc4c(c3)CCN4)C2)CC1 (stereo not drawn) [Example 374, 1-(2,3-Dihydro-1H-indol-5-yl)-4-(4-(1,3-thiazol-2-ylcarbonyl)piperazin-1-yl)pyrrolidin-2-one]
inhibition at 10 µM: 81%

O=C(c1nccs1)N1CCN(C2CC(=O)N(c3ccc4c(c3)CCN4C3CC3)C2)CC1 (stereo not drawn) [Example 375, 1-(1-Cyclopropyl-2,3-dihydro-1H-indol-5-yl)-4-(4-(1,3-thiazol-2-ylcarbonyl)piperazin-1-yl)pyrrolidin-2-one]
inhibition at 10 µM: 95%

O=C1CC(N2CCN(c3ncccn3)CC2)CN1c1ccc2c(c1)CCN2c1ccnc(C(F)(F)F)c1 (stereo not drawn) [Example 377, 4-(4-(pyrimidin-2-yl)piperazin-1-yl)-1-(1-(2-(trifluoromethyl)pyridin-4-yl)-2,3-dihydro-1H-indol-5-yl)pyrrolidin-2-one]
inhibition at 10 µM: 97%

O=C1CC(N2CCN(c3ncccn3)CC2)CN1c1ccc2c(c1)CCN2c1ncc(C(F)(F)F)cn1 (stereo not drawn) [Example 378, 4-(4-(Pyrimidin-2-yl)piperazin-1-yl)-1-(1-(5-(trifluoromethyl)pyrimidin-2-yl)-2,3-dihydro-1H-indol-5-yl)pyrrolidin-2-one]
inhibition at 10 µM: 95%

CC(C)(C)CC(=O)N1CCc2cc(N3CC(N4CCN(C(=O)c5nccs5)CC4)CC3=O)ccc21 (stereo not drawn) [Example 382, 1-(1-(3,3-Dimethylbutanoyl)-2,3-dihydro-1H-indol-5-yl)-4-(4-(1,3-thiazol-2-ylcarbonyl)piperazin-1-yl)pyrrolidin-2-one]
inhibition at 10 µM: 99%

O=C(c1nccs1)N1CCN(C2CC(=O)N(c3ccc4c(c3)CCN4c3ccc(C(F)(F)F)cn3)C2)CC1 (stereo not drawn) [Example 383, 4-(4-(1,3-thiazol-2-ylcarbonyl)piperazin-1-yl)-1-(1-(5-(trifluoromethyl)pyridin-2-yl)-2,3-dihydro-1H-indol-5-yl)pyrrolidin-2-one]
inhibition at 10 µM: 98%

O=C(c1cscn1)N1CCN([C@@H]2CC(=O)N(c3ccc4c(c3)CCN4c3ncc(C(F)(F)F)cn3)C2)CC1 [Example 384, (4R)-4-(4-(1,3-thiazol-4-ylcarbonyl)piperazin-1-yl)-1-(1-(5-(trifluoromethyl)pyrimidin-2-yl)-2,3-dihydro-1H-indol-5-yl)pyrrolidin-2-one]
inhibition at 10 µM: 99%

O=C(c1nccs1)N1CCN([C@@H]2CC(=O)N(c3ccc4c(c3)CCN4c3cc(C(F)(F)F)ncn3)C2)CC1 [Example 385, (4R)-4-(4-(1,3-thiazol-2-ylcarbonyl)piperazin-1-yl)-1-(1-(6-(trifluoromethyl)pyrimidin-4-yl)-2,3-dihydro-1H-indol-5-yl)pyrrolidin-2-one]
inhibition at 10 µM: 100%

O=C(c1nccs1)N1CCN(C2CC(=O)N(c3ccc4oc(-c5ccc(F)cc5)nc4c3)C2)CC1 (stereo not drawn) [Example 386, 1-(2-(4-fluorophenyl)-1,3-benzoxazol-5-yl)-4-(4-(1,3-thiazol-2-ylcarbonyl)piperazin-1-yl)pyrrolidin-2-one]
inhibition at 10 µM: 99%

O=C(c1nccs1)N1CCN(C2CC(=O)N(c3ccc4nc(-c5ccccc5)oc4c3)C2)CC1 (stereo not drawn) [Example 387, 1-(2-phenyl-1,3-benzoxazol-6-yl)-4-(4-(1,3-thiazol-2-ylcarbonyl)piperazin-1-yl)pyrrolidin-2-one]
inhibition at 10 µM: 97%

O=C(c1nccs1)N1CCN([C@@H]2CC(=O)N(c3ccc4c(c3)CCN4c3ccnc(C(F)(F)F)n3)C2)CC1 [Example 388, (4R)-4-(4-(1,3-thiazol-2-ylcarbonyl)piperazin-1-yl)-1-(1-(2-(trifluoromethyl)pyrimidin-4-yl)-2,3-dihydro-1H-indol-5-yl)pyrrolidin-2-one]
inhibition at 10 µM: 99%

CC(C)(C)OC(=O)N1CCc2cc(N3CC(N4CCN(c5ncccn5)CC4)CC3=O)ccc21 (stereo not drawn) [Example 389, tert-butyl 5-(2-oxo-4-(4-(pyrimidin-2-yl)piperazin-1-yl)pyrrolidin-1-yl)indoline-1-carboxylate]
inhibition at 10 µM: 98%

O=C(c1nccs1)N1CCN([C@@H]2CC(=O)N(c3ccc4c(c3)CCN4c3cnc(C(F)(F)F)cn3)C2)CC1 [Example 390, (4R)-4-(4-(1,3-thiazol-2-ylcarbonyl)piperazin-1-yl)-1-(1-(5-(trifluoromethyl)pyrazin-2-yl)-2,3-dihydro-1H-indol-5-yl)pyrrolidin-2-one]
inhibition at 10 µM: 96%

O=C(c1nccs1)N1CCN([C@@H]2CC(=O)N(c3ccc4c(c3)CCN4c3cnc(C(F)(F)F)nc3)C2)CC1 [Example 391, (4R)-4-(4-(1,3-thiazol-2-ylcarbonyl)piperazin-1-yl)-1-(1-(2-(trifluoromethyl)pyrimidin-5-yl)-2,3-dihydro-1H-indol-5-yl)pyrrolidin-2-one]
inhibition at 10 µM: 90%

O=C(c1nccs1)N1CCN(C2CC(=O)N(c3ccc4c(c3)CCN4C(=O)Cc3ccccc3)C2)CC1 (stereo not drawn) [Example 392, 1-(1-(phenylacetyl)-2,3-dihydro-1H-indol-5-yl)-4-(4-(1,3-thiazol-2-ylcarbonyl)piperazin-1-yl)pyrrolidin-2-one]
inhibition at 10 µM: 99%
